Laboratory results as given in patent US20240092758A1, “IMIDAZOLO INDAZOLE COMPOUNDS AS JAK INHIBITORS” (Theravance Biopharma R&D IP, LLC, priority 2021, published 2024).

Columns and labels:
[1] = molecular target: JAK2 (Homo sapiens (Human), UniProt O60674); experiment: Biochemical JAK kinase assay (LanthaScreen), JAK2; conditions: for Ki: read-out: JAK2 pKi (converted)
How it was run: (§1)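 LanthaScreen format: phospho-STAT1 (pTyr701) detected with 2 nM Tb antibody after 10 mM EDTA quench. Kinase step used Km-level ATP and 200 nM STAT1 peptide, 1 h at ambient after 1 h pre-incubation. Inhibition fitted to IC50, reported as pKi.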

[2] = Pharmacokinetics in plasma and lung in mouse after oral aspiration administration; type: in vivo; conditions: male CD1 mice; for Lung Tissue AUC(0-24) / AUC(0-t): 0.2 mg/mL, two 25 μL increments; for Lung Tissue:Plasma AUC ratio: lung AUC to plasma AUC; for AUC(0-t): mouse, inhaled or intranasal, 0.01 mg/mouse, plasma, read-out: Plasma AUC(0-24)
Protocol: Plasma and lung concentrations of test compounds were quantified and pharmacokinetic parameters were calculated in the following manner. Male CD1 mice from Charles River Laboratories were used in the pharmacokinetic studies. Test compounds were individually formulated in 20% propylene glycol in pH 4 citrate buffer at a concentration of 0.2 mg/mL. Test compounds were administered in two, 25 μL increments introduced into the trachea of each mouse by oral aspiration using a calibrated pipette once the animal was anesthetized using isoflurane. Blood samples were collected as terminal collections via cardiac puncture at 0.167, 1, 4, 8, and 24 hr post-dosing. Following […] with CO2, a direct cardiac puncture was performed while avoiding puncturing the lung and blood was immediately transferred into K2EDTA tubes and placed on wet ice. Blood samples were centrifuged (Eppendorf centrifuge, 5804R) for 4 minutes at approximately 12,000 rpm at 4° C. to collect plasma. Intact lungs were also excised from these mice using the same timepoints (0.167, 1, 4, 8, and 24 hr). Lungs were washed with sterile water to remove any blood residue and were patted dry, weighed, and homogenized in 0.1% formic acid in water at a dilution of 1:3 (lung:water, weight/volume). Plasma and lung concentrations of test compounds were determined by LC-MS/MS analysis against analytical standards constructed into a standard curve in the test matrix. The pharmacokinetic parameters of test compounds were determined by non-compartmental analysis. For concentrations below the limit of quantification, zero was used for mean calculations. Mean values were not reported if more than 50% of the samples were below the limit of quantification at a timepoint, or if more than 50% of a calculated pharmacokinetic parameter was not reportable. The area under the concentration-time curve extrapolated to infinity (AUC(0-inf)) was calculated as follows: AUC(0-inf)=AUC(0-t)+Clast/k, where AUC(0-t) is the area under the concentration-time curve from the time of dosing to the last measurable concentration calculated by the linear trapezoidal rule, Clast is the last measurable concentration, and k is the first order rate constant associated with the terminal elimination phase, estimated by linear regression of time versus log concentration. The lung-to-plasma AUC ratio was determined as the ratio of the lung AUC(0-inf) in μg*hr/g to the plasma AUC(0-inf) in μg*hr/mL.

[3] = molecular target: TYK2 (Homo sapiens (Human), UniProt P29597); experiment: Biochemical JAK kinase assay (LanthaScreen), Tyk2; conditions: read-out: Tyk2 pKi (converted)
How it was run: as §1

[4] = molecular target: JAK1 (Homo sapiens (Human), UniProt P23458); experiment: Biochemical JAK kinase assay (LanthaScreen), JAK1; conditions: for Ki: read-out: JAK1 pKi (converted)
How it was run: as §1

[5] = molecular target: JAK3 (Homo sapiens (Human), UniProt P52333); experiment: Biochemical JAK kinase assay (LanthaScreen), JAK3; conditions: read-out: JAK3 pKi (converted)
How it was run: as §1

[6] = system: IL-13 induced STAT6 phosphorylation in BEAS-2B human lung epithelial cells; experiment: Cellular JAKI potency assay (BEAS-2B); type: cell-based; conditions: Homo sapiens, BEAS-2B, BEAS-2B cells, read-out: BEAS2B pIC50 (converted)
How it was run: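 AlphaLISA SureFire detection of Tyr641 pSTAT6 in lysates gave IC50s (4-parameter fit, expressed as pIC50). Cells: human BEAS-2B, exposed 1 h at 37 °C to compound dose series at 0.1% DMSO, then 30 min to IL-13 added at 80 ng/mL in HEPES-buffered HBSS with BSA.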

Chain of TYK2 (P29597 whole entry): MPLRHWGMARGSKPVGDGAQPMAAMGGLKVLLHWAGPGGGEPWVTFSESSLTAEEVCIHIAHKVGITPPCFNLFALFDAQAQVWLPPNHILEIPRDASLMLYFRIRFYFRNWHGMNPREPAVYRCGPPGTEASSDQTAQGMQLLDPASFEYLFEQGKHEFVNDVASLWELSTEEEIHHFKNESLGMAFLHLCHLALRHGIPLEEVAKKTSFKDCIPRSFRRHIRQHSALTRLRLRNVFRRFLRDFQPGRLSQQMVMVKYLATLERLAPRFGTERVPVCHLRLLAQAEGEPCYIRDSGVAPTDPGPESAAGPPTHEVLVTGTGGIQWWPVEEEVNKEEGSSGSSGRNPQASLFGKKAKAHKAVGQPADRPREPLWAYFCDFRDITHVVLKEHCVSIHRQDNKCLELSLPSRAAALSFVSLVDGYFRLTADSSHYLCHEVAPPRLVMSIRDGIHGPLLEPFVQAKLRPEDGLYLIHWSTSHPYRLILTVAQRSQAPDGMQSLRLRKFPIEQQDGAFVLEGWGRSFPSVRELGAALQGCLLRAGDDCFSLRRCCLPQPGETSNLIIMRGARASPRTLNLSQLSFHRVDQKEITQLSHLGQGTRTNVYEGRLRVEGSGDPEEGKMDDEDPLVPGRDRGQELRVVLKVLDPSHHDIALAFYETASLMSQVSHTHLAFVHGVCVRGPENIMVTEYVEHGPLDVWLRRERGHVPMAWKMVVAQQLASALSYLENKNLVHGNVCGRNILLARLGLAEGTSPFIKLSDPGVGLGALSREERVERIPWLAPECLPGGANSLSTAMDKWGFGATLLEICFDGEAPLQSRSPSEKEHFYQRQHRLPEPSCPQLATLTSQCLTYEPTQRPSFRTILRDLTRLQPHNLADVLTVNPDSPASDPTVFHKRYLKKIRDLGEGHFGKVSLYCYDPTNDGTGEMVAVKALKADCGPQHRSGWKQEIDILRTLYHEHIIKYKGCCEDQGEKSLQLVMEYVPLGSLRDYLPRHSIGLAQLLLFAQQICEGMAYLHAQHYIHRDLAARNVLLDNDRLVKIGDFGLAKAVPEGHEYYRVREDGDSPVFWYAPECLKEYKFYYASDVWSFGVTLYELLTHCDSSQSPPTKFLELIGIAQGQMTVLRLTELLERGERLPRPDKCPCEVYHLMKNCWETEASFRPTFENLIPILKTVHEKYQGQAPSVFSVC
Chain of JAK2 (O60674 whole entry): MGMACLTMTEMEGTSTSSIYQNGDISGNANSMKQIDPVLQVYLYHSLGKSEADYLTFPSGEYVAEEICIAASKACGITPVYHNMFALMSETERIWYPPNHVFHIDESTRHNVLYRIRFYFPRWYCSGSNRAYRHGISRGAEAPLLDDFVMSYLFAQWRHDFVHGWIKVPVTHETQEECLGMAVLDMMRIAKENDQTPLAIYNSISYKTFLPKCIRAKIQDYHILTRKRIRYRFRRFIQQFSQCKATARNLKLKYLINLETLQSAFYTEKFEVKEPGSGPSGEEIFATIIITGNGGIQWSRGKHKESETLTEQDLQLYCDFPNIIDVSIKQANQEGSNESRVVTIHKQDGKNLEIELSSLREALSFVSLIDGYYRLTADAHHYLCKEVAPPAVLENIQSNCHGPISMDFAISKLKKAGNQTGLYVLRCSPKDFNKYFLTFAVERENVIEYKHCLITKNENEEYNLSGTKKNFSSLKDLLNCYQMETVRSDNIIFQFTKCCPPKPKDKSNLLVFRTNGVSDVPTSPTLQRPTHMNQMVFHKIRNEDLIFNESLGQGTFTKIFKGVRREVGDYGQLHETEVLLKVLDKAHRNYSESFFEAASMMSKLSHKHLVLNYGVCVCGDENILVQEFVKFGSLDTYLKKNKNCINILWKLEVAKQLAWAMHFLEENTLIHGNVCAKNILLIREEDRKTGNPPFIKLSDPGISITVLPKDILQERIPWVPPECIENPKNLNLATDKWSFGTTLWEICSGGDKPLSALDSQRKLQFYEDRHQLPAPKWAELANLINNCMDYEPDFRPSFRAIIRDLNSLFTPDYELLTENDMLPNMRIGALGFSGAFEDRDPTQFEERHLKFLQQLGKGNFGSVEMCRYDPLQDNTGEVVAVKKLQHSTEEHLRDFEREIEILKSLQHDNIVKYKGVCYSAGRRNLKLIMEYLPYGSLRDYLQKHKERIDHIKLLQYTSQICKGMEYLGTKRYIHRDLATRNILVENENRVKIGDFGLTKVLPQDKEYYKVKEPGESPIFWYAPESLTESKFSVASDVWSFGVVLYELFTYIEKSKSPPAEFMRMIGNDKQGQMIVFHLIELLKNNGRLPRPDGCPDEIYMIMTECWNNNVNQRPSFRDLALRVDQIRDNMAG
Chain of JAK1 (P23458 whole entry): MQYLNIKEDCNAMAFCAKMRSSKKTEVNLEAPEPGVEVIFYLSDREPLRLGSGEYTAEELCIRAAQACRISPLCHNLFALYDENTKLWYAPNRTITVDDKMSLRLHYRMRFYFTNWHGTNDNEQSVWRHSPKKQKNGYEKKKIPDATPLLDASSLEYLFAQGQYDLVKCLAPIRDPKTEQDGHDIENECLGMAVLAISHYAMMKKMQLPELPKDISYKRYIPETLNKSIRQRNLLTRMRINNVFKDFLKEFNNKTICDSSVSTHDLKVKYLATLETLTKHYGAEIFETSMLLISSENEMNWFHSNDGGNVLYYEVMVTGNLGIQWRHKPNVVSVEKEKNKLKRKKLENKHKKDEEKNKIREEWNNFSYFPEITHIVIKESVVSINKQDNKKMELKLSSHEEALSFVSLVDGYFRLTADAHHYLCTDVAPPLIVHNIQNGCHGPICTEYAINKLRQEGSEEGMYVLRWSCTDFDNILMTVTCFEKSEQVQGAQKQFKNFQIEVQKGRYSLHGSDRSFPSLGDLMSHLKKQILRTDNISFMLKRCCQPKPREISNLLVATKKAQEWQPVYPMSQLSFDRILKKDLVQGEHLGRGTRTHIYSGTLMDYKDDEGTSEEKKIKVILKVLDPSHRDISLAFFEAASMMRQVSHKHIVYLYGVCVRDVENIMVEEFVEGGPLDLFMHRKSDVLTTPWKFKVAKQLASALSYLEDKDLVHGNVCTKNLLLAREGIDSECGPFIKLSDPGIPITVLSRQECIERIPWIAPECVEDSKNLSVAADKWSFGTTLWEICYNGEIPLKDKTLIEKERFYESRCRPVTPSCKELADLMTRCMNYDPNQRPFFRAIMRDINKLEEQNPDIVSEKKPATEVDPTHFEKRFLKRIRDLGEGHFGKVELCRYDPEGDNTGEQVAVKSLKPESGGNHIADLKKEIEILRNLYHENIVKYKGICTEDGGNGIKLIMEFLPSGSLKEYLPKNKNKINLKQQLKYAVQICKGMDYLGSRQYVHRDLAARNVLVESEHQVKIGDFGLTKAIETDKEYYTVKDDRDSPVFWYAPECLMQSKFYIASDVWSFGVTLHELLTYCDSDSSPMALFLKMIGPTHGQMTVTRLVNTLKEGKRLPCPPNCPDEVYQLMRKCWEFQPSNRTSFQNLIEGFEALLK
Chain of JAK3 (P52333 whole entry): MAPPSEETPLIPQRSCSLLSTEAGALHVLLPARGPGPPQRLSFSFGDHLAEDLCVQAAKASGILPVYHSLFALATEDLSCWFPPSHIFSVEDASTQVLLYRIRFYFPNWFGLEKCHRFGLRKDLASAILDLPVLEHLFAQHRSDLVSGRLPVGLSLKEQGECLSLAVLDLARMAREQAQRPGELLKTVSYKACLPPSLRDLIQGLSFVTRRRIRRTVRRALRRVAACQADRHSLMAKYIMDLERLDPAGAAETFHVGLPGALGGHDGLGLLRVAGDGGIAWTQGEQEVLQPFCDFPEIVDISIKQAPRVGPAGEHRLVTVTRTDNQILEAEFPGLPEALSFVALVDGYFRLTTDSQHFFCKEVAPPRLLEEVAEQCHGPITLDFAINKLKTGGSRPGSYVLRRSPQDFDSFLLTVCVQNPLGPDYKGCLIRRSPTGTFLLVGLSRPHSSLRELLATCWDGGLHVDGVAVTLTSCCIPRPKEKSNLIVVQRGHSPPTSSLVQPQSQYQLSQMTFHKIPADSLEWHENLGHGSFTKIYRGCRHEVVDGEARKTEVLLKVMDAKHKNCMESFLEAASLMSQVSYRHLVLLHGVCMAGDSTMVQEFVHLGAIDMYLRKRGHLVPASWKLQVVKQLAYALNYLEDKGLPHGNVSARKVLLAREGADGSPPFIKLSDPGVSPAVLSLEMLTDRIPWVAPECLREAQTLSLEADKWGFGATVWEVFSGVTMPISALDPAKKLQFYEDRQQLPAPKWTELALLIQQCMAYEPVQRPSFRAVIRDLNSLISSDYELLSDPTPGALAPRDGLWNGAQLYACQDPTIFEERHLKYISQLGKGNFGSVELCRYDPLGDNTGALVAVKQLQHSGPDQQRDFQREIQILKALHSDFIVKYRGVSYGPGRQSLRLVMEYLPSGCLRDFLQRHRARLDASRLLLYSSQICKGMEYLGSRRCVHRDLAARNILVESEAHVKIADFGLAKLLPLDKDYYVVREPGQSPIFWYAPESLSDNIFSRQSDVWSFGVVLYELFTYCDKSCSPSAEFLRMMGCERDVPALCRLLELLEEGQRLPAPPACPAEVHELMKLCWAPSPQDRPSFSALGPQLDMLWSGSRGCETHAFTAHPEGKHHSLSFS

| Structure (SMILES) | JAK2 pKi [1] | Lung Tissue AUC(0-24) [2] | Lung Tissue:Plasma AUC ratio [2] | AUC(0-t) [2] | Ki [3] | Ki [4] | Ki [5] | IC50 [6] | Ki [1] | JAK1 pKi [4] |
| --- | --- | --- | --- | --- | --- | --- | --- | --- | --- | --- |
| CCc1cc(O)ccc1-c1ccc2c(-c3nc(C4=C[C@H](CO)NC4)c[nH]3)n[nH]c2c1F [Compound 8, (R)-3-ethyl-4-(7-fluoro-3-(4-(5-(hydroxymethyl)-2,5-dihydro-1H-pyrrol-3-yl)-1H-imidazol-2-yl)-1H-indazol-6-yl)phenol] | A (A represents a pKi value ≥10 (Ki≤0.1 nM)) | B (B denotes a value between 50 and 100) | C (C denotes a ratio between 100 and 200) | 500 to 1000 ng·h/mL | 1 to 10 nM | 0.1 to 1 nM | 0.1 to 1 nM | 10 to 31.6 nM |  |  |
| CCc1cc(O)ccc1-c1ccc2c(-c3nc(C4=CCN(C5CN(C)C5)CC4)c[nH]3)n[nH]c2c1 [Compound 15, 3-ethyl-4-(3-(4-(1-(1-methylazetidin-3-yl)-1,2,3,6-tetrahydropyridin-4-yl)-1H-imidazol-2-yl)-1H-indazol-6-yl)phenol] | A (A represents a pKi value ≥10 (Ki≤0.1 nM)) | B (B denotes a value between 50 and 100) | C (C denotes a ratio between 100 and 200) | < 500 ng·h/mL | 1 to 10 nM | 0.1 to 1 nM | 0.1 to 1 nM | 10 to 31.6 nM |  |  |
| CCc1cc(O)ccc1-c1ccc2c(-c3nc(C4=CCN(C5CCC5)CC4)c[nH]3)n[nH]c2c1F [Example 26] |  | C (C denotes a value between 9 and 50) | E (E denotes a ratio between 30 and 50) | < 500 ng·h/mL | 1 to 10 nM | 0.1 to 1 nM | 0.1 to 1 nM | 10 to 31.6 nM | 0.1 to 1 nM |  |
| CCc1cc(O)ccc1-c1ccc2c(-c3nc(C4=CCN(C5CCN(C)CC5)C4)c[nH]3)n[nH]c2c1F [Example 201] | A (A represents a pKi value ≥10 (Ki≤0.1 nM)) | A (For the Lung Tissue AUC(0-24), A denotes a value between 100 and 200) | B (B denotes a ratio between 200 and 300) | 500 to 1000 ng·h/mL | 1 to 10 nM | 0.1 to 1 nM | 0.1 to 1 nM | 3.16 to 10 nM |  |  |
| CCc1cc(O)ccc1-c1ccc2c(-c3nc(C4=CCCN(CCO)C4)c[nH]3)n[nH]c2c1F [Example 44] |  | B (B denotes a value between 50 and 100) | D (D denotes a ratio between 50 and 100) | 500 to 1000 ng·h/mL | 1 to 10 nM | 0.1 to 1 nM | 0.1 to 1 nM | 3.16 to 10 nM | 0.1 to 1 nM |  |
| CCc1cc(O)ccc1-c1ccc2c(-c3nc(C4=CCCNC4)c[nH]3)n[nH]c2c1 [Compound 4, 3-ethyl-4-(3-(4-(1,2,5,6-tetrahydropyridin-3-yl)-1H-imidazol-2-yl)-1H-indazol-6-yl)phenol] |  | B (B denotes a value between 50 and 100) | C (C denotes a ratio between 100 and 200) | 500 to 1000 ng·h/mL | 1 to 10 nM | 0.1 to 1 nM | 0.1 to 1 nM | 3.16 to 10 nM | 0.1 to 1 nM |  |
| CCc1cc(O)ccc1-c1ccc2c(-c3nc(C4=CCCN(CCCO)C4)c[nH]3)n[nH]c2c1F [Example 45] | A (A represents a pKi value ≥10 (Ki≤0.1 nM)) | C (C denotes a value between 9 and 50) | C (C denotes a ratio between 100 and 200) | < 500 ng·h/mL | 1 to 10 nM | 0.1 to 1 nM | 0.1 to 1 nM | 3.16 to 10 nM |  |  |
| CCc1cc(O)ccc1-c1ccc2c(-c3nc(C4=CCN(C)CC4)c[nH]3)n[nH]c2c1F [Example 21] | A (A represents a pKi value ≥10 (Ki≤0.1 nM)) | C (C denotes a value between 9 and 50) | D (D denotes a ratio between 50 and 100) | < 500 ng·h/mL | 0.1 to 1 nM |  | 0.1 to 1 nM | 3.16 to 10 nM |  | A (A represents a pKi value ≥10 (Ki≤0.1 nM)) |
| CCc1cc(O)ccc1-c1ccc2c(-c3nc(C4=C[C@@H](COC)NC4)c[nH]3)n[nH]c2c1F [Example 246] |  | C (C denotes a value between 9 and 50) | D (D denotes a ratio between 50 and 100) | < 500 ng·h/mL | 10 to 100 nM | 0.1 to 1 nM | 1 to 10 nM | 10 to 31.6 nM | 0.1 to 1 nM |  |
